Laboratory results from PMC3961306, “Comparison of the Cancer Gene Targeting and Biochemical Selectivities of All Targeted Kinase Inhibitors Approved for Clinical Use” (PLoS ONE, 2014).

How the values were obtained:
Assay in all cases: Kinase profiling in a biochemical assay panel (mobility shift assays and ELISA), %-inhibition at 1 μM; selectivity entropy
[1] = biological target: panel of more than 300 wild-type and mutant kinases (313 kinase panel) (Homo sapiens, UniProt P42336)
[2] = biological target: panel of more than 300 wild-type and mutant kinases (313 kinase panel) (Homo sapiens, UniProt Q00526)
[3] = biological target: panel of more than 300 wild-type and mutant kinases (313 kinase panel) (Homo sapiens, UniProt Q9P289)
[4] = biological target: panel of more than 300 wild-type and mutant kinases (313 kinase panel) (Homo sapiens, UniProt P49840)
[5] = biological target: panel of more than 300 wild-type and mutant kinases (313 kinase panel) (Homo sapiens, UniProt P11309)
[6] = biological target: T1, panel of more than 300 wild-type and mutant kinases (313 kinase panel) (Homo sapiens, UniProt Q9BZL6)
T1 sequence (Q9BZL6 1-878): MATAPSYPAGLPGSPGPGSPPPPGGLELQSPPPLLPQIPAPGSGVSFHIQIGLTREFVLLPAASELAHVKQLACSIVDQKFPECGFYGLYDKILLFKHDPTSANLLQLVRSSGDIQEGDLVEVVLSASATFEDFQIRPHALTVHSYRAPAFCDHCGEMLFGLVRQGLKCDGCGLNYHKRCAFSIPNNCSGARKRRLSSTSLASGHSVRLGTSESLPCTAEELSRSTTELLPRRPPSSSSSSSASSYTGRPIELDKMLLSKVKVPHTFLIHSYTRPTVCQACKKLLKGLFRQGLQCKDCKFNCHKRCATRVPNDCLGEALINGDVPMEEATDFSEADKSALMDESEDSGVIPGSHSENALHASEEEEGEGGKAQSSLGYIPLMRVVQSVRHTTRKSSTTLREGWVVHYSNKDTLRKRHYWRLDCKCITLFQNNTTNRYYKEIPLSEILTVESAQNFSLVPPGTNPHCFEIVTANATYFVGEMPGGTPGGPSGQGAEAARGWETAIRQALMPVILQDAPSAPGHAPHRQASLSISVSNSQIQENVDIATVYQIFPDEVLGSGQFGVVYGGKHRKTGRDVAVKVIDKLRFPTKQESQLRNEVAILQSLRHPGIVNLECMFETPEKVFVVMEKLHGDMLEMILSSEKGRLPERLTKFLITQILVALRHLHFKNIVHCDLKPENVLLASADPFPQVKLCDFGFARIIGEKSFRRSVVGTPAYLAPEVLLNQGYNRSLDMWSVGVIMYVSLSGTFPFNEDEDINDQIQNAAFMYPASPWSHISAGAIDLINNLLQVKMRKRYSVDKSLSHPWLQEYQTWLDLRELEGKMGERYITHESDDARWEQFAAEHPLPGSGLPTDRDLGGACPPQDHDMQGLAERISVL

[7] = biological target: panel of more than 300 wild-type and mutant kinases (313 kinase panel) (Homo sapiens, UniProt Q9H1R3)
[8] = biological target: T2, panel of more than 300 wild-type and mutant kinases (313 kinase panel) (Homo sapiens, UniProt Q13470); details: 1 µM
T2 sequence (Q13470 1-666): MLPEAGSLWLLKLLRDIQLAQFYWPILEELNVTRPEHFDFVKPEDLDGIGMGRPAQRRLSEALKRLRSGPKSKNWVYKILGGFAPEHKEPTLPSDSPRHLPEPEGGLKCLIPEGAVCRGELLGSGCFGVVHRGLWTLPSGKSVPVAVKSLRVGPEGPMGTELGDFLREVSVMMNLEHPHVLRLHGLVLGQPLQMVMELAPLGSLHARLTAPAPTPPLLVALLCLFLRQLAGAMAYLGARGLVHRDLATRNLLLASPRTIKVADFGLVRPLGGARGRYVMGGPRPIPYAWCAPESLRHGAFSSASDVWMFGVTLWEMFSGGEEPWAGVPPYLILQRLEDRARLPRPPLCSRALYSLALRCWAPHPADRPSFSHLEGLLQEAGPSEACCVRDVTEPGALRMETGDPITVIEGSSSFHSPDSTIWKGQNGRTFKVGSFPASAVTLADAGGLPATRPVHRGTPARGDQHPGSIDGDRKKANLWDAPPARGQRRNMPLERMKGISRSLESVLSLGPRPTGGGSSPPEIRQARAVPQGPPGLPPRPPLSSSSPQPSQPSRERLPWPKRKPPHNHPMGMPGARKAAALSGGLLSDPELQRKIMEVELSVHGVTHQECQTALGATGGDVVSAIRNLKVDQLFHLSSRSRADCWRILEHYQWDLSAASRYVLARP

[9] = biological target: panel of more than 300 wild-type and mutant kinases (313 kinase panel) (Homo sapiens, UniProt P53350)
[10] = kinase CDK3/CycE1, 1 μM compound

panel of more than 300 wild-type and mutant kinases (313 kinase panel) (Homo sapiens, UniProt Q00526), sequence (Q00526 whole entry, change not shown): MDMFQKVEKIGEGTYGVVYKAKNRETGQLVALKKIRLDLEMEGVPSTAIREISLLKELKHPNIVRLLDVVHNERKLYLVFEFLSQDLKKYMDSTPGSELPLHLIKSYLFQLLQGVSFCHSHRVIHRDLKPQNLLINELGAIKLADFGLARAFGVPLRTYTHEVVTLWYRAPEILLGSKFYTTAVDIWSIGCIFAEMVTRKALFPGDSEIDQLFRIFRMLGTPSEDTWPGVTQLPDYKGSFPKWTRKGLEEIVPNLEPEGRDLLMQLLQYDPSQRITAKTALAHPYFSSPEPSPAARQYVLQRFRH
panel of more than 300 wild-type and mutant kinases (313 kinase panel) (Homo sapiens, UniProt Q9P289), sequence (Q9P289 whole entry, change not shown): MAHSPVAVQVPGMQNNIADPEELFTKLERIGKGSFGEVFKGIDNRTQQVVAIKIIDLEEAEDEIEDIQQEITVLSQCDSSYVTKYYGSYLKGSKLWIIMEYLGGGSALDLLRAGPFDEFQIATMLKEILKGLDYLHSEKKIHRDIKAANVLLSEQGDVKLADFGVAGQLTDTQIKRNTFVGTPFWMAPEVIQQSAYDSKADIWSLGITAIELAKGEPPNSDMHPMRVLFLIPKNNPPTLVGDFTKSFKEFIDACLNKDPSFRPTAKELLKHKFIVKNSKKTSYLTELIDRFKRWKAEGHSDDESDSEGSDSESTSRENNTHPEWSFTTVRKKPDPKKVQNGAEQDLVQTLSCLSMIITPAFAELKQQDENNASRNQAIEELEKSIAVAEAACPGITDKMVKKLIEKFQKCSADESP

| Structure (SMILES) | %-inhibition of PIK3CA/PIK3R1 ([1]; 1 µM) | %-inhibition, CDK3/CycE1 ([2]; 1 µM) | %-inhibition of MST4 ([3]; 1 µM) | %-inhibition of GSK3α ([4]; 1 µM) | %-inhibition of PIM1 ([5]; 1 µM) | %-inhibition of PKD2 ([6]; 1 µM) | %-inhibition of skMLCK ([7]; 1 µM) | %-inhibition of TNK1 [8] | %-inhibition of PLK1 ([9]; 1 µM) | %-inhibition of PIK3CA/PIK3R1 ([1]; kinase PIK3CA/PIK3R1, 1 μM) | %-inhibition, CDK3/CycE1 [2, 10] | %-inhibition of MST4 ([3]; kinase MST4, 1 μM) | %-inhibition of GSK3α ([4]; kinase GSK3α, compound at 1 μM) | %-inhibition of PIM1 ([5]; kinase PIM1, 1 μM) | %-inhibition of PKD2 ([6]; kinase PKD2, 1 μM) | %-inhibition of skMLCK ([7]; kinase skMLCK, 1 μM) | %-inhibition of PLK1 ([9]; kinase PLK1, 1 μM) |
| --- | --- | --- | --- | --- | --- | --- | --- | --- | --- | --- | --- | --- | --- | --- | --- | --- | --- |
| C#Cc1cccc(Nc2ncnc3cc(OCCOC)c(OCCOC)cc23)c1 [erlotinib] | 11% | 7% | 7% | -4% | 6% | 17% | 19% | 44% | -10% |  |  |  |  |  |  |  |  |
| Cc1cn(-c2cc(NC(=O)c3ccc(C)c(Nc4nccc(-c5cccnc5)n4)c3)cc(C(F)(F)F)c2)cn1 [nilotinib] |  |  |  |  |  |  |  | -4% |  | 16% | -1.6% | 1.77% | -0.491% | 8% | -3% | -14% | -2.41% |
| CC(=O)Nc1cccc(-n2c(=O)n(C3CC3)c(=O)c3c(Nc4ccc(I)cc4F)n(C)c(=O)c(C)c32)c1 [trametinib] |  |  |  | 1.59% |  |  |  | -2.58% |  | 0.26% | 0.16% | -2.23% |  | 4.44% | -3.28% | -3.34% | -9% |
